Experimental data: patent publication US10344019B2 (priority 2010, dated 2019)
Like-named read-outs stand apart in the source and are kept apart here.

Assays:
Assay in all cases: microbe, parasite or virus in culture
Format in all cases: cell-based
[1] = system: HCV 4a Rluc cells (NS5A chimeric genotype 1b Con1 replicon with genotype 4a NS5A gene); settings: Hepatitis C virus, read-out: 4a
Summary of the method: (§1)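 Replicon cells stably carrying the listed RLuc-encoding dicistronic replicons were seeded and treated with DMSO serial dilutions of compound (10 mM stocks) diluted into culture medium. After 72 h, cells were lysed and Renilla luciferase activity measured. EC50 was derived by non-linear regression.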

[2] = system: HCV 3a RLuc cells (NS5A chimeric genotype 1b Con1 replicon with consensus genotype 3a NS5A gene)
Summary of the method: as §1

[3] = system: HCV 2a JFH-1 Rluc cells (dicistronic genotype 2a JFH-1 replicon, RLuc reporter); settings: genotype 2a JFH-1 replicon, read-out: 2a JFH
Summary of the method: (§2)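 Replicons used: genotype 1b Con1, 1a H77, 2a JFH-1, and a 2a JFH-1 chimera with J6-strain NS5A (M31 present), all dicistronic.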

[4] = system: HCV 1b RLuc cells (dicistronic genotype 1b Con1 replicon, RLuc reporter)
Summary of the method: as §2

[5] = system: HCV 1a RLuc cells (dicistronic genotype 1a H77 replicon, RLuc reporter); settings: read-out: 1a
Summary of the method: as §2

[6] = Hepatitis C virus, read-out: 3a, genotype 3a NS5A chimeric 1b Con1 replicon
[7] = Hepatitis C virus, RLuc reporter
[8] = Hepatitis C virus, read-out: 1b (nM)
[9] = genotype 1a H77 replicon, RLuc reporter
[10] = Hepatitis C virus, genotype 1a H77 replicon, RLuc reporter
[11] = Hepatitis C virus, read-out: 3a, genotype 3a replicon
[12] = Hepatitis C virus, genotype 1a replicon

SMILES	EC50 [1] [pM]	EC50 [2, 6] [pM]	EC50 [3, 7] [pM]	EC50 [4, 8] [nM]	EC50 [5, 9] [pM]	EC50 [5, 10] [pM]	EC50 ([2]; read-out: 3a, genotype 3a NS5A chimeric 1b Con1 replicon) [pM]	EC50 ([3]; RLuc reporter) [pM]	EC50 ([4]; read-out: 1b) [nM]	EC50 [2, 11] [pM]	EC50 ([3]; Hepatitis C virus) [pM]	EC50 [5, 12] [pM]
COC(=O)N[C@H](C(=O)N1CCC[C@H]1c1ncc(-c2ccc3cc(-c4ccc(-c5cnc([C@@H]6CCCN6C(=O)[C@@H](NC(=O)OCc6ccccc6)C6CCSCC6)[nH]5)cc4)ccc3c2)[nH]1)C(C)C [Example 275]	> 5000	> 5000	> 44000	2.15	1000 to 44000	–	–	–	–	–	–	–
COC(=O)N[C@H](C(=O)N1CCC[C@H]1c1ncc(-c2ccc3cc(-c4ccc(-c5cnc([C@@H]6CCCN6C(=O)[C@@H](N)C6CCSCC6)[nH]5)cc4)ccc3c2)[nH]1)C(C)C [Example 277]	1000 to 4990	> 5000	> 44000	1.06	–	1000 to 44000	–	–	–	–	–	–
COC(=O)N[C@H](C(=O)N1CCC[C@H]1c1ncc(-c2ccc3cc(-c4ccc(-c5cnc([C@@H]6CCCN6C(=O)[C@@H](NC(=O)OC)C6CCSCC6)[nH]5)cc4)ccc3c2)[nH]1)C(C)C [Example 278]	1 to 990	1000 to 4990	1 to 999	0.013	–	1 to 999	–	–	–	–	–	–
COC(=O)N[C@H](C(=O)N1CCC[C@H]1c1nc2c([nH]1)-c1ccc(-c3ccc4cc(-c5cnc([C@@H]6CCCN6C(=O)[C@H](NC(=O)OC)c6ccccc6)[nH]5)ccc4c3)cc1CC2)C1CCOCC1 [Example 279]	1 to 990	–	–	–	1000 to 44000	–	1 to 990	1000 to 44000	0.031	–	–	–
COC(=O)N[C@@H](C(=O)N1CCC[C@H]1c1ncc(-c2ccc3cc(-c4ccc5c(c4)CCc4nc([C@@H]6CCCN6C(=O)[C@@H](NC(=O)C6CC6)C6CCOCC6)[nH]c4-5)ccc3c2)[nH]1)c1ccccc1 [Example 280]	1 to 990	1 to 990	1000 to 44000	0.047	–	1000 to 44000	–	–	–	–	–	–
COC(=O)N[C@@H](C(=O)N1CCC[C@H]1c1ncc(-c2ccc3cc(-c4ccc5c(c4)CCc4nc([C@@H]6CCCN6C(=O)[C@@H](NC(O)OC)C6CCN(S(C)(=O)=O)CC6)[nH]c4-5)ccc3c2)[nH]1)c1ccccc1 (some centres unmarked) [Example 281]	1 to 990	1 to 990	1 to 999	0.063	–	1 to 999	–	–	–	–	–	–
COC(=O)N[C@H](C(=O)N1[C@@H]2CC[C@@H](C2)[C@H]1c1nc2ccc3cc(C#Cc4ccc(-c5cnc([C@@H]6CCCN6C(=O)[C@H](NC(=O)OC)c6ccccc6)[nH]5)cc4)ccc3c2[nH]1)C1CCOCC1 [Example 283]	1 to 990	1 to 990	1 to 999	0.007	–	1 to 999	–	–	–	–	–	–
COC(=O)N[C@H](C(=O)N1CCC[C@H]1c1nc2c([nH]1)-c1ccc(-c3ccc4cc(-c5cnc([C@@H]6CCCN6C(=O)[C@H](NC(=O)OC)c6ccccc6)[nH]5)ccc4c3)cc1CC2)C1CCNCC1 [Example 284]	1 to 990	> 5000	1000 to 44000	4.62	–	1000 to 44000	–	–	–	–	–	–
COC(=O)N[C@H](C(=O)N1CCC[C@H]1c1nc2ccc3cc(-c4csc5cc(-c6cnc([C@@H]7CCCN7C(=O)[C@H](NC(=O)OC)c7ccccc7)[nH]6)ccc45)ccc3c2[nH]1)C(C)C [Example 285]	1 to 990	1 to 990	1 to 999	0.006	–	1 to 999	–	–	–	–	–	–
CCC(CC)[C@H](NC(=O)OC)C(=O)N1CCC[C@H]1c1ncc(-c2ccc3cc(-c4ccc(-c5cnc([C@@H]6CCCN6C(=O)[C@H](NC(=O)OC)c6ccccc6)[nH]5)cc4)ccc3c2)[nH]1 [Example 286]	1 to 990	1 to 990	1 to 999	0.003	–	1 to 999	–	–	–	–	–	–
COC(=O)N[C@H](C(=O)N1CCC[C@H]1c1nc2ccc3cc(-c4ccc5cc(-c6cnc([C@@H]7CCCN7C(=O)[C@H](NC(=O)C(C)(C)O)c7ccccc7)[nH]6)ccc5c4)ccc3c2[nH]1)C(C)C [Example 287]	1 to 990	1 to 990	1 to 999	0.006	–	1 to 999	–	–	–	–	–	–
COC(=O)N[C@H](C(=O)N1CCC[C@H]1c1nc2ccc3cc(-c4ccc5cc(-c6cnc([C@@H]7CCCN7C(=O)[C@H](NC(=O)N7CCOCC7)c7ccccc7)[nH]6)ccc5c4)ccc3c2[nH]1)C(C)C [Example 288]	1 to 990	1 to 990	1 to 999	0.009	–	1 to 999	–	–	–	–	–	–
COC(=O)N[C@H](C(=O)N1CCC[C@H]1c1nc2ccc3cc(-c4ccc5cc(-c6cnc([C@@H]7CCCN7C(=O)[C@H](NC(=O)OC7COC7)c7ccccc7)[nH]6)ccc5c4)ccc3c2[nH]1)C(C)C [Example 289]	1 to 990	1 to 990	1 to 999	0.01	–	1 to 999	–	–	–	–	–	–
COC(=O)N[C@H](C(=O)N1CCC[C@H]1c1nc2ccc3cc(-c4ccc5c(c4)CCc4nc([C@@H]6[C@H]7CC[C@H](C7)N6C(=O)[C@@H](NC(=O)OC)C(C)C)[nH]c4-5)ccc3c2[nH]1)C(C)C [Example 290]	1 to 990	–	–	0.017	–	–	–	–	–	1 to 990	1 to 999	1 to 999
COC(=O)N[C@H](C(=O)N1[C@@H]2CC[C@@H](C2)[C@H]1c1nc2c([nH]1)-c1ccc(-c3ccc4c(ccc5nc([C@@H]6CCCN6C(=O)[C@@H](NC(=O)OC)C6CCOCC6)[nH]c54)c3)cc1CC2)C(C)C [Example 291]	1 to 990	–	–	0.103	–	–	–	–	–	1 to 990	1 to 999	1 to 999
COC(=O)N[C@H](C(=O)N1[C@@H]2CC[C@@H](C2)[C@H]1c1nc2c([nH]1)-c1ccc(-c3ccc4c(ccc5nc([C@@H]6CCCN6C(=O)[C@@H](NC(=O)OC)[C@@H](C)OC)[nH]c54)c3)cc1CC2)C(C)C [Example 292]	1 to 990	–	–	0.059	–	–	–	–	–	1 to 990	1 to 999	1 to 999
COC(=O)N[C@H](C(=O)N1CCC[C@H]1c1ncc(-c2ccc3c4ccc(-c5cnc([C@@H]6CCCN6C(=O)[C@@H](NC(=O)OC)C6CCOCC6)[nH]5)cc4c4ccccc4c3c2)[nH]1)C(C)C [Example 293]	1 to 990	–	–	0.042	–	–	–	–	–	1 to 990	1 to 999	1 to 999
COC(=O)N[C@H](C(=O)N1CCC[C@H]1c1ncc(-c2ccc3c(c2)CCc2cc(-c4cnc([C@@H]5[C@H]6CC[C@H](C6)N5C(=O)[C@@H](c5ccccc5)N5CCOCC5)[nH]4)ccc2-3)[nH]1)C(C)C [Example 295]	1 to 990	–	–	0.05	–	–	–	–	–	1 to 990	1 to 999	1000 to 44000
COC(=O)N[C@H](C(=O)N1CCC[C@H]1c1nc2ccc3cc(-c4ccc(-c5cnc([C@@H]6CC7(CN6C(=O)[C@H](NC(=O)OC)c6ccccc6)OCCO7)[nH]5)cc4)ccc3c2[nH]1)C(C)C [Example 296]	1 to 990	–	–	0.063	–	–	–	–	–	1 to 990	1 to 999	1 to 999
COC(=O)N[C@H](C(=O)N1CCC[C@H]1c1nc2ccc3cc(-c4ccc(-c5cnc([C@@H]6CC7(CN6C(=O)[C@H](NC(=O)OC)c6ccccc6)OCCO7)[nH]5)cc4)ccc3c2[nH]1)C1CCOCC1 [Example 297]	1 to 990	–	–	0.357	–	–	–	–	–	1 to 990	1 to 999	1 to 999
COC(=O)N[C@H](C(=O)N1CCC[C@H]1c1ncc(-c2ccc(-c3ccc4c(c3)c3ccccc3c3nc([C@@H]5CCCN5C(=O)[C@@H](NC(=O)OC)C(C)C)[nH]c43)cc2)[nH]1)C(C)C [Example 299]	1 to 990	–	–	0.017	–	–	–	–	–	> 5000	1000 to 44000	1000 to 44000
COC(=O)N[C@H](C(=O)N1CCC[C@H]1c1nc2c3ccccc3c3cc(-c4ccc(-c5cnc([C@@H]6CCCN6C(=O)[C@@H](NC(=O)OC)C6CCOCC6)[nH]5)cc4)ccc3c2[nH]1)C(C)C [Example 300]	1 to 990	–	–	0.023	–	–	–	–	–	1000 to 4990	1 to 999	1000 to 44000
COC(=O)N[C@H](C(=O)N1CCC[C@H]1c1nc2c3ccccc3c3cc(-c4ccc(-c5cnc([C@@H]6CCCN6C(=O)[C@@H](NC(=O)OC)[C@@H](C)OC)[nH]5)cc4)ccc3c2[nH]1)C(C)C [Example 301]	1 to 990	–	–	0.019	–	–	–	–	–	1000 to 4990	1000 to 44000	1000 to 44000
COC(=O)N[C@H](C(=O)N1[C@@H]2CC[C@@H](C2)[C@H]1c1ncc(-c2ccc(-c3ccc4c(ccc5nc([C@@H]6CCCN6C(=O)[C@@H](NC(=O)OC)C6CCOCC6)[nH]c54)c3)cc2F)[nH]1)C(C)C [Example 302]	1 to 990	–	–	0.021	–	–	–	–	–	1 to 990	1 to 999	1 to 999
COC(=O)N[C@H](C(=O)N1CCC[C@H]1c1ncc(-c2ccc3c(ccc4cc(-c5cnc([C@@H]6[C@H]7CC[C@H](C7)N6C(=O)[C@@H](NC(=O)OC)C(C)C)[nH]5)ccc43)c2)[nH]1)C(C)C [Example 303]	1 to 990	–	–	0.008	–	–	–	–	–	1 to 990	1 to 999	1 to 999
